One may read the pIC50 as the negative decadic logarithm of the IC50, by convention in mol/L. As usually defined, the IC50 is the concentration needed to halve the response being measured.

This is an account of results in US10010547B2 (CASCADIAN THERAPEUTICS, INC., priority 2014, dated 2018).

Molecules are shown by their SMILES. pIC50: −log10 of the molar value. Where a name gives a salt, the structure may show the parent alone. Read-outs that look alike come from different tables or passages of the source. Some results are limits rather than exact numbers.

Experiment [1] has as its target Chk-1 kinase (Homo sapiens (Human), UniProt O14757). Briefly: Chk-1 Kinase Inhibiting Activity (33P-ATP filter assay, CHKtide substrate). The class given is biochemical. The settings on record: against Chk-1 kinase; read-out: IC50. Summed up: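 Full-length N-terminal GST-tagged human Chk-1 from insect cells, 0.5 nM final, with 20 μM peptide substrate and 33P-ATP in HEPES pH 7.5 buffer with 1% DMSO. Reaction ran 120 minutes at room temperature; incorporated radioactivity captured on P81 filters and counted for IC50.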

Experiment [2] deals with MIA PaCa-2 cells. Kind of experiment: Gemcitabine Combination Cell Assay (Cell Titer Glo). The class given is cell-based. The settings on record: for pIC50: Chk1 inhibitor alone, read-out: Chk1 IC50; for pIC50 / 10xLS / 2xLS: MIA PaCa-2 cells, 72 h; for 10xLS: approximate concentration of Chk1 inhibitor that results in a 10-fold reduction in the IC50 of gemcitabine alone; for 2xLS: approximate concentration of Chk1 inhibitor that results in a two-fold reduction in the IC50 of gemcitabine alone; for IC50: MIA PaCa-2, 72 h, read-out: Chk1 IC50 (nM). The gist of the method:
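MIA PaCa-2 cells were treated 72 h with half-log dilutions of Chk1 inhibitor (top 3000 nM) and gemcitabine (top 100 nM), alone and in full matrix; viability by CellTiter-Glo luminescence. IC50s from four-parameter fit; Chk1 inhibitor concentrations giving two- and ten-fold lowering of gemcitabine IC50 were estimated.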

Chk-1 kinase, sequence (O14757 whole entry): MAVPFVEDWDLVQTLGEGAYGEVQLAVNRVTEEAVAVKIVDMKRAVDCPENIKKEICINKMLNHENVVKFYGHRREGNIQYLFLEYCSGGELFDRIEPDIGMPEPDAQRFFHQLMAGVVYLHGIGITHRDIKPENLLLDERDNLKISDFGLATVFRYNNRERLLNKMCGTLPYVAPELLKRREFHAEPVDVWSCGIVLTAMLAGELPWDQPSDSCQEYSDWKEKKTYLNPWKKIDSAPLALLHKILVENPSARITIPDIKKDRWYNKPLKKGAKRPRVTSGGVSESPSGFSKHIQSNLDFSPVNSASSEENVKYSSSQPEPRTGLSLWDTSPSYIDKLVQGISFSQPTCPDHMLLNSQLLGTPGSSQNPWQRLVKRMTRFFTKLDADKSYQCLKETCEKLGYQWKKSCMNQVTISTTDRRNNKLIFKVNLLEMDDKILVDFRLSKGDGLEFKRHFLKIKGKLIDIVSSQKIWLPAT

With `COc1cc(COC2CCN(C)CC2)ccc1-c1cc(Nc2cnc(C#N)cn2)n[nH]1` [Example 113, 5-[[5-[2-methoxy-4-[(1-methyl-4-piperidyl)oxymethyl]phenyl]-1H-pyrazol-3-yl]amino]pyrazine-2-carbonitrile], the pIC50 in experiment [1] is 9.57. For the same molecule, in experiment [2], the pIC50 is 6.27, the “10xLS” value is 300 nM and the “2xLS” value amounted to 3 nM.
For the molecule `CCN1CCN(c2ccc(-c3cc(Nc4cnc(C#N)cn4)n[nH]3)c(OC)c2)C[C@H]1C` [Example 93, 5-[[5-[4-[(3R)-4-ethyl-3-methyl-piperazin-1-yl]-2-methoxy-phenyl]-1H-pyrazol-3-yl]amino]pyrazine-2-carbonitrile], the values for the pIC50 in experiment [1] and in experiment [2] (Homo sapiens) were 10.80 and 7.00, respectively. In addition, the “10xLS” value in experiment [2] was below 30 nM. The “2xLS” value in experiment [2] is given as below 3 nM.
As to `COc1cc(C2CCN(C(=O)CN(C)C)CC2)ccc1-c1cc(Nc2cnc(C#N)cn2)n[nH]1` [Example 17, 5-[[5-[4-[1-[2-(Dimethylamino)acetyl]-4-piperidyl]-2-methoxy-phenyl]-1H-pyrazol-3-yl]amino]pyrazine-2-carbonitrile hydrochloride], the negative logarithm of the IC50 (pIC50) in experiment [1] is 9.54. Besides, in experiment [2] (Homo sapiens), the IC50 came out at 1820 nM. Further, in experiment [2], the “10xLS” value turned out to be 300 nM and the “2xLS” value is listed as 10 nM.
As to `COc1cc(NCC2CCOCC2)ccc1-c1cc(Nc2cnc(C#N)cn2)n[nH]1` [Example 74, 5-[[5-[2-methoxy-4-(tetrahydropyran-4-ylmethylamino)phenyl]-1H-pyrazol-3-yl]amino]pyrazine-2-carbonitrile], the negative-log IC50 (pIC50) in experiment [1] is 9.46. The negative logarithm of the IC50 (pIC50) in experiment [2] (Homo sapiens) was 6.55. Also, in experiment [2], the “10xLS” value worked out at 100 nM and the “2xLS” value turned out to be 3 nM.
The matching figures for `COc1cc(C2(F)CCN(C(C)C)CC2)ccc1-c1cc(Nc2cnc(C#N)cn2)n[nH]1` [Example 86, 5-[[5-[4-(4-fluoro-1-isopropyl-4-piperidyl)-2-methoxy-phenyl]-1H-pyrazol-3-yl]amino]pyrazine-2-carbonitrile]: 9.92, 6.62, below 100 nM and below 3 nM.
Taken in the same sequence, the figures for `N#Cc1cnc(Nc2cc(-c3ccc(C4CCNCC4)cc3F)[nH]n2)cn1` [Example 51, 5-[[5-[2-fluoro-4-(4-piperidyl)phenyl]-1H-pyrazol-3-yl]amino]pyrazine-2-carbonitrile] were 8.20, below 5.52, 3000 nM and 300 nM.
The matching figures for `COc1cc(C2CCNCC2)c(Cl)cc1-c1cc(Nc2cnc(C#N)cn2)n[nH]1` [Example 68, 5-[[5-[5-chloro-2-methoxy-4-(4-piperidyl)phenyl]-1H-pyrazol-3-yl]amino]pyrazine-2-carbonitrile]: 8.54, 5.86, 1000 nM and 100 nM.
As to `COc1cc(C2(F)CCN(C)CC2)ccc1-c1cc(Nc2cnc(C#N)cn2)n[nH]1` [Example 64, 5-[[5-[4-(4-Fluoro-1-methyl-4-piperidyl)-2-methoxy-phenyl]-1H-pyrazol-3-yl]amino]pyrazine-2-carbonitrile hydrochloride], the pIC50 in experiment [1] is 9.82. The IC50 in experiment [2] (Homo sapiens) was found to be 144 nM. In experiment [2], the “10xLS” value turned out to be 100 nM and the “2xLS” value was 3 nM.
With `COc1cc(CNC2CCN(C)CC2)ccc1-c1cc(Nc2cnc(C#N)cn2)n[nH]1` [Example 37, 5-[[5-[2-methoxy-4-[[(1-methyl-4-piperidyl)amino]methyl]phenyl]-1H-pyrazol-3-yl]amino]pyrazine-2-carbonitrile], in experiment [1], the negative logarithm of the IC50 (pIC50) is 9.96. Also, the pIC50 in experiment [2] (Homo sapiens) is 6.74. Further, in experiment [2], the “10xLS” value is listed as below 100 nM and the “2xLS” value is on record as 3 nM.
Taken in the same sequence, the figures for `COc1cc(C2CCN(CCF)CC2)ccc1-c1cc(Nc2cnc(C#N)cn2)n[nH]1` [Example 106, 5-[[5-[4-[1-(2-fluoroethyl)-4-piperidyl]-2-methoxy-phenyl]-1H-pyrazol-3-yl]amino]pyrazine-2-carbonitrile] were 9.77, 6.36, 100 nM and 3 nM.
Turning to `COc1cc(OC[C@@H]2CCCN2C)ccc1-c1cc(Nc2cnc(C#N)cn2)n[nH]1` [Example 104, 5-[[5-[2-methoxy-4-[[(2S)-1-methylpyrrolidin-2-yl]methoxy]phenyl]-1H-pyrazol-3-yl]amino]pyrazine-2-carbonitrile hydrochloride], the pIC50 in experiment [1] was 9.92. In experiment [2] (Homo sapiens), the half-maximal inhibitory concentration (IC50) was found to be 214 nM. For the same molecule, in experiment [2], the “10xLS” value is listed as 100 nM and the “2xLS” value worked out at 3 nM.
Regarding `COc1cc(NCc2ccccc2)cc(OC)c1-c1cc(Nc2cnc(C#N)cn2)n[nH]1` [Example 1, 5-[5-(4-Benzylamino-2,6-dimethoxy-phenyl)-1H-pyrazol-3-ylamino]-pyrazine-2-carbonitrile], the pIC50 in experiment [1] is 8.55. The negative logarithm of the IC50 (pIC50) in experiment [2] (Homo sapiens) is 5.27. Further, in experiment [2], the “10xLS” value is given as 1000 nM and the “2xLS” value came out at 100 nM.
Turning to `COc1cc(N2CCN(C(C)C)[C@H](C)C2)ccc1-c1cc(Nc2cnc(C#N)cn2)n[nH]1` [Example 133, 5-[[5-[4-[(3R)-4-isopropyl-3-methyl-piperazin-1-yl]-2-methoxy-phenyl]-1H-pyrazol-3-yl]amino]pyrazine-2-carbonitrile], the figures for the negative-log IC50 (pIC50) in experiment [1] and in experiment [2] (Homo sapiens) were 9.92 and 6.86, respectively. In addition, in experiment [2], the “10xLS” value amounted to 30 nM. Also, the “2xLS” value in experiment [2] is given as below 3 nM.
Taken in the same sequence, the figures for `COc1cc(OCC2CCCN2C)ccc1-c1cc(Nc2cnc(C#N)cn2)n[nH]1` (stereo not shown) [Example 35, 5-[[5-[2-methoxy-4-[(1-methylpyrrolidin-2-yl)methoxy]phenyl]-1H-pyrazol-3-yl]amino]pyrazine-2-carbonitrile] were 9.85, 6.66, 100 nM and 3 nM.
As for `COCCN1CCC(c2ccc(-c3cc(Nc4cnc(C#N)cn4)n[nH]3)c(OC)c2)CC1` [Example 89, 5-[[5-[2-methoxy-4-[1-(2-methoxyethyl)-4-piperidyl]phenyl]-1H-pyrazol-3-yl]amino]pyrazine-2-carbonitrile], the negative-log IC50 (pIC50) in experiment [1] is 10.29. Besides, the negative-log IC50 (pIC50) in experiment [2] (Homo sapiens) was 6.71. In experiment [2], the “10xLS” value amounted to 100 nM and the “2xLS” value is on record as below 3 nM.
Taken in the same sequence, the figures for `COc1cc(CNCC2CCN(C(=O)C3CC3)CC2)ccc1-c1cc(Nc2cnc(C#N)cn2)n[nH]1` [Example 12, 5-[5-(4-{[(1-cyclopropane-carbonyl-piperidin-4-ylmethyl)-amino]-methyl}-2-methoxy-phenyl)-1 H-pyrazol-3-ylamino]-pyrazine-2-carbonitrile] were 10.47, 6.58, around 50 nM and below 3 nM.
In the case of `COc1cc(CNCCN2CCOCC2)ccc1-c1cc(Nc2cnc(C#N)cn2)n[nH]1` [Example 9, 5-(5-{2-methoxy-4-[(2-morpholin-4-yl-ethylamino)-methyl]-phenyl}-1H-pyrazol-3-ylamino)-pyrazine-2-carbonitrile], the negative logarithm of the IC50 (pIC50) in experiment [1] was 10.11; in experiment [2] (Homo sapiens), 6.64. Moreover, the “10xLS” value in experiment [2] was determined as 100 nM. The “2xLS” value in experiment [2] was 3 nM.
Taken in the same sequence, the figures for `COc1cc(CNc2ccccn2)ccc1-c1cc(Nc2cnc(C#N)cn2)n[nH]1` [Example 31, 5-[[5-[2-methoxy-4-[(2-pyridylamino)methyl]phenyl]-1H-pyrazol-3-yl]amino]pyrazine-2-carbonitrile] were 9.43, 6.08, 100 nM and 3 nM.
For the molecule `COc1cc(CN[C@@H]2CCOC2)ccc1-c1cc(Nc2cnc(C#N)cn2)n[nH]1` [Example 131, 5-[[5-[2-methoxy-4-[[[(3R)-tetrahydrofuran-3-yl]amino]methyl]phenyl]-1H-pyrazol-3-yl]amino]pyrazine-2-carbonitrile], the values for the negative logarithm of the IC50 (pIC50) in experiment [1] and in experiment [2] (Homo sapiens) were 10.00 and 6.23, respectively. For the same molecule, the “10xLS” value in experiment [2] was found to be 100 nM. Besides, the “2xLS” value in experiment [2] stood at 3 nM.
Consider `CCN1CCC(Oc2ccc(-c3cc(Nc4cnc(C#N)cn4)n[nH]3)c(OC)c2)CC1` [Example 134, 5-[[5-[4-[(1-ethyl-4-piperidyl)oxy]-2-methoxy-phenyl]-1H-pyrazol-3-yl]amino]pyrazine-2-carbonitrile], for which the figures for the pIC50 in experiment [1] and in experiment [2] (Homo sapiens) were 9.96 and 6.45, respectively. Further, in experiment [2], the “10xLS” value stood at 100 nM. Besides, the “2xLS” value in experiment [2] amounted to 3 nM.
The matching figures for `CCN1CCC[C@@H]1COc1ccc(-c2cc(Nc3cnc(C#N)cn3)n[nH]2)c(OC)c1` [Example 126, 5-[[5-[4-[[(2R)-1-ethylpyrrolidin-2-yl]methoxy]-2-methoxy-phenyl]-1H-pyrazol-3-yl]amino]pyrazine-2-carbonitrile]: 10.25, 6.68, below 100 nM and 3 nM.
The matching figures for `COc1cc(OC2CCNCC2)ccc1-c1cc(Nc2cnc(C#N)cn2)n[nH]1` [Example 57, 5-[[5-[2-methoxy-4-(4-piperidyloxy)phenyl]-1H-pyrazol-3-yl]amino]pyrazine-2-carbonitrile]: 10.15, 6.47, 100 nM and 3 nM.
